Test results as given in patent publication US6399833B1, “Process for producing aryl vinyl sulfone solution and use thereof” (Sumitomo Chemical Company, Limited, priority 1998, dated 2002).

What was measured:
[1] = Stability of phenyl vinyl sulfone solutions in various solvents, thermostatic bath at 40° C., analysed by gas chromatography; format: physicochemical; conditions: for Retention in DMF solution: N,N-dimethylformamide solution (30%); for Retention in ethanol solution: ethanol solution (10%); for Retention in MIK solution: methyl isobutyl ketone solution (30%); for Retention in MTBE solution: methyl t-butyl ether solution (10%); for Retention in toluene solution: toluene solution (30%)
Description: About 35 ml of a phenyl vinyl sulfone solution and a chip of stainless steel (20 mm×25 mm×2 mm) (assuming the storage in a stainless steel vessel) were put in a glass sample tube of 50 ml in volume, which was purged with nitrogen gas and then sealed with a tight stopper, followed by stability tests in a thermostatic bath at 40° C. The results of retention when a toluene solution (concentration, 30%), a methyl isobutyl ketone solution (concentration, 30%), and a methyl t-butyl ether solution (concentration, 10%) were used as the phenyl vinyl sulfone solutions are shown in Table 2.
The concentration of phenyl vinyl sulfone in each solution was analyzed by gas chromatography. In the table, MIK refers to methyl isobutyl ketone; and MTBE, methyl t-butyl ether.
Stability tests were carried out in the same manner as described in Reference Example 3, except that an ethanol solution (concentration, 10%) and an N,N-dimethylformamide solution (concentration, 30%) were used as the phenyl vinyl sulfone solutions. In the table, DMF refers to N,N-dimethylformamide.

[2] = Stability of phenyl vinyl sulfone/acetonitrile solution, thermostatic bath at 40° C., analysed by gas chromatography; format: physicochemical; conditions: 30% acetonitrile solution, stainless steel chip, nitrogen
Description: About 70 ml of a phenyl vinyl sulfone/acetonitrile solution (phenyl vinyl sulfone concentration, 30%) and a chip of stainless steel (20 mm×25 mm×2 mm) (assuming the storage in a stainless steel vessel) were put in a glass sample tube of 100 ml in volume, which was purged with nitrogen gas and then sealed with a tight stopper, followed by stability tests in a thermostatic bath at 40° C. The concentration of phenyl vinyl sulfone in the phenyl vinyl sulfone/acetonitrile solution was analyzed by gas chromatography.

[3] = Aldrich Material Safety Data; cited from earlier work

C=CS(=O)(=O)c1ccccc1 [phenyl vinyl sulfone]
Appearance of solution on storage ([1]; DMF solution (30%), with the lapse of storage days): yellow coloring was observed | Retention in DMF solution ([1]; 0 day): 100% | Retention in DMF solution ([1]; 15 days): 99.0% | Retention in ethanol solution ([1]; 0 day): 100% | Retention in ethanol solution ([1]; 15 days): 83.8% | Retention in MIK solution ([1]; 0 day): 100% | Retention in MIK solution ([1]; 15 days): 99.5% | Retention in MTBE solution ([1]; 0 day): 100% | Retention in MTBE solution ([1]; 15 days): 100% | Retention in toluene solution ([1]; 0 day): 100% | Retention in toluene solution ([1]; 15 days): 100% | Retention ([2]; 0 day): 100% | Retention ([2]; 30 days): 100% | Retention ([2]; 60 days): 99.9% | Retention ([2]; 90 days): 99.4% | Irritation [3]: exhibit irritation
